22 compounds from patent US9193695B2, “1, 2, 4-triazolone derivative and use thereof as an antagonist on the arginine-vasopressin 1B receptor” (TAISHO PHARMACEUTICAL CO., LTD., priority 2010, dated 2015) can be followed below.

Molecules are shown by their SMILES.

In the assay the target is T1, Human V1b receptor (Homo sapiens, UniProt P47901).
T1 sequence (P47901 1-424): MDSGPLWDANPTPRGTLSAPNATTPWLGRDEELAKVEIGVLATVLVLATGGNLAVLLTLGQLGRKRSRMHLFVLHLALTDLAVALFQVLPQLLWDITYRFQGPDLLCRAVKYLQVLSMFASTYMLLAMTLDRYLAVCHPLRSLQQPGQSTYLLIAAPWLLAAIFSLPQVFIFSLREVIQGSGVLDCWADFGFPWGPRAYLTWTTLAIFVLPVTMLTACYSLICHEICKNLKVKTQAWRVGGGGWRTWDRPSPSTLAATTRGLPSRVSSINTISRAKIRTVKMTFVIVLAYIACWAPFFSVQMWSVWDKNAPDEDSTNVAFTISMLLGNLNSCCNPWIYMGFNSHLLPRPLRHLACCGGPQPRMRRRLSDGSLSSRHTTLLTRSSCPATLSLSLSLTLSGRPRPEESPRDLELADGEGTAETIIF
Briefly: Binding test for V1b receptor ([3H]AVP displacement, crude membrane preparation). Set-up: expressed in transfected cells; host or cells: 293FT cells (Invitrogen), transient expression; crude membrane preparation. The conditions noted are these: [3H]AVP 0.4 to 1 nmol/L; membranes of 293FT cells transiently expressing human V1b receptor; room temperature, 60 minutes. As for the experimental part: Binding Test for V1b Receptor
Human V1b receptor was transiently expressed in 293FT cells (Invitrogen). The cells were collected and were homogenated in a 15 mmol/L tris-hydrochloric acid buffer (pH 7.4, containing 2 mmol/L magnesium chloride, 0.3 mmol/L ethylenediaminetetracetic acid, and 1 mmol/L glycol ether diaminetetraacetic acid). The resulting homogenate was centrifuged at 50,000×g at 4° C. for 20 minutes. The precipitate was resuspended in a 75 mmol/L tris-hydrochloric acid buffer (pH 7.4, containing 12.5 mmol/L magnesium chloride, 0.3 mmol/L ethylenediaminetetracetic acid, 1 mmol/L glycol ether diamine tetraacetic acid, and 250 mmol/L sucrose) to give a crude membrane preparation, which was stored at −80° C. until the binding test. In the binding test, the crude membrane preparation was diluted with a 50 mmol/L tris-hydrochloric acid buffer (pH 7.4, containing 10 mmol/L magnesium chloride and 0.1% bovine serum albumin), and test compound was serially diluted with DMSO. The diluted crude membrane preparation was incubated with each test compound (final concentration of 0.01 nmol/L to 1 μmol/L) and [^3H]AVP (final concentration: 0.4 to 1 nmol/L) at room temperature for 60 minutes. After the incubation, the mixture was suction filtered through a GF/C filter pretreated with 0.3% polyethyleneimine. The GF/C filter was dried, and a scintillator was added thereto. The radioactivity remaining on the filter was measured using TopCount (PerkinElmer Inc.). The radioactivity in the presence of 10 μmol/L of unlabeled AVP was defined as 0%, and the radioactivity in the absence of unlabeled AVP was defined as 100%. A dose-response curve was plotted from radioactivities in the presence of a test compound at various concentrations, and the 50% inhibitory concentration (IC50 value) of the compound was calculated.
`CC(CO)NC(=O)Cn1c(-c2cccc(Cl)c2)nn(-c2ccc(CCN3CCOCC3)cc2)c1=O` (racemic) [Ad-20, 2-[3-(3-Chlorophenyl)-1-{4-[2-(morpholin-4-yl)ethyl]phenyl}-5-oxo-1,5-dihydro-4H-1,2,4-triazol-4-yl]-N-(1-hydroxypropan-2-yl)acetamide] came in with an IC50 of 96 nM.
The compound `CC(C)NC(=O)Cn1c(-c2cccc(Cl)c2)nn(-c2ccc(CC(C)N3C4CCC3COC4)cn2)c1=O` (single isomer, unassigned; (+)) [Ad-19-2] came in with a half-inhibitory concentration (IC50) of 17 nM.
`CC(C)NC(=O)Cn1c(-c2cccc(Cl)c2)nn(-c2ccc(CC(C)N3C4CCC3COC4)cn2)c1=O` (single isomer, unassigned; (-)) [Ad-19-1] registered an IC50 of 0.59 nM.
`CC(C)NC(=O)Cn1c(-c2cccc(Cl)c2)nn(-c2ccc(CCN3CCC(O)C3)cc2)c1=O` (stereo not shown) [Aa-6, 2-[3-(3-Chlorophenyl)-1-{4-[2-(3-hydroxypyrrolidin-1-yl)ethyl]phenyl}-5-oxo-1,5-dihydro-4H-1,2,4-triazol-4-yl]-N-(propan-2-yl)acetamide]: the IC50 was 56 nM.
`CC(C)NC(=O)Cn1c(-c2cccc(Cl)c2)nn(-c2ccc(CCN3CCC(CO)C3)cc2)c1=O` (stereo not shown) [Aa-7, 2-[3-(3-Chlorophenyl)-1-(4-{2-[3-(hydroxymethyl)pyrrolidin-1-yl]ethyl}phenyl)-5-oxo-1,5-dihydro-4H-1,2,4-triazol-4-yl]-N-(propan-2-yl)acetamide] registered a half-maximal inhibitory concentration (IC50) of 34 nM.
As to `CC(C)NC(=O)Cn1c(-c2cccc(Cl)c2)nn(-c2ccc(CCN3CC4CCC(C3)O4)cc2)c1=O` [Aa-9, 2-[3-(3-Chlorophenyl)-1-{4-[2-(8-oxa-3-azabicyclo[3.2.1]oct-3-yl)ethyl]phenyl}-5-oxo-1,5-dihydro-4H-1,2,4-triazol-4-yl]-N-(propan-2-yl)acetamide], the half-inhibitory concentration (IC50) is 18 nM.
Consider `CC(C)NC(=O)Cn1c(-c2cccc(Cl)c2)nn(-c2ccc(CCN3CCCCC3)cc2)c1=O` [Aa-11, 2-[3-(3-Chlorophenyl)-5-oxo-1-{4-[2-(piperidin-1-yl)ethyl]phenyl}-1,5-dihydro-4H-1,2,4-triazol-4-yl]-N-(propan-2-yl)acetamide], for which the IC50 is 37 nM.
As to `CC(C)NC(=O)Cn1c(-c2cccc(Cl)c2)nn(-c2ccc(CCN3CCCOCC3)cc2)c1=O` [Aa-13, 2-[3-(3-Chlorophenyl)-1-{4-[2-(1,4-oxazepan-4-yl)ethyl]phenyl}-5-oxo-1,5-dihydro-4H-1,2,4-triazol-4-yl]-N-(propan-2-yl)acetamide], the IC50 was 20 nM.
As for `CC(C)NC(=O)Cn1c(-c2cccc(Cl)c2)nn(-c2ccc(CCN3C4CCC3CC(O)C4)cn2)c1=O` (stereo not shown) [Ab-4, 2-[3-(3-Chlorophenyl)-1-{5-[2-(3-hydroxy-8-azabicyclo[3.2.1]oct-8-yl)ethyl]pyridin-2-yl}-5-oxo-1,5-dihydro-4H-1,2,4-triazol-4-yl]-N-(propan-2-yl)acetamide], the figure is 20 nM; as for `CC(C)NC(=O)Cn1c(-c2cccc(Cl)c2)nn(-c2ccc(CCN3CCOCC3)nc2)c1=O` [Ac-2, 2-[3-(3-Chlorophenyl)-1-{6-[2-(morpholin-4-yl)ethyl]pyridin-3-yl}-5-oxo-1,5-dihydro-4H-1,2,4-triazol-4-yl]-N-(propan-2-yl)acetamide], 79 nM.
The compound `CC(C)(C)NC(=O)Cn1c(-c2cccc(Cl)c2)nn(-c2ccc(CCN3CCOCC3)cc2)c1=O` [Ad-1, N-Tert-Butyl-2-[3-(3-chlorophenyl)-1-{4-[2-(morpholin-4-yl)ethyl]phenyl}-5-oxo-1,5-dihydro-4H-1,2,4-triazol-4-yl]acetamide] had a concentration for half-maximal inhibition (IC50) of 2.5 nM.
`CC(NC(=O)Cn1c(-c2cccc(Cl)c2)nn(-c2ccc(CCN3CCOCC3)cc2)c1=O)C(F)(F)F` (stereo not shown) [Ad-2, 2-[3-(3-Chlorophenyl)-1-{4-[2-(morpholin-4-yl)ethyl]phenyl}-5-oxo-1,5-dihydro-4H-1,2,4-triazol-4-yl]-N-(1,1,1-trifluoropropan-2-yl)acetamide]: the half-maximal inhibitory concentration (IC50) was 15 nM.
In the case of `CC(C)(CO)NC(=O)Cn1c(-c2cccc(Cl)c2)nn(-c2ccc(CCN3CCOCC3)cc2)c1=O` [Ad-3, 2-[3-(3-Chlorophenyl)-1-{4-[2-(morpholin-4-yl)ethyl]phenyl}-5-oxo-1,5-dihydro-4H-1,2,4-triazol-4-yl]-N-(1-hydroxy-2-methylpropan-2-yl)acetamide] it was 55 nM; in that of `O=C(Cn1c(-c2cccc(Cl)c2)nn(-c2ccc(CCN3CCOCC3)cc2)c1=O)NC1CCC1` [Ad-4, 2-[3-(3-Chlorophenyl)-1-{4-[2-(morpholin-4-yl)ethyl]phenyl}-5-oxo-1,5-dihydro-4H-1,2,4-triazol-4-yl]-N-cyclobutylacetamide], 102 nM; in that of `O=C(Cn1c(-c2cccc(Cl)c2)nn(-c2ccc(CCN3CCOCC3)cc2)c1=O)NC1COC1` [Ad-5, 2-[3-(3-Chlorophenyl)-1-{4-[2-(morpholin-4-yl)ethyl]phenyl}-5-oxo-1,5-dihydro-4H-1,2,4-triazol-4-yl]-N-(oxetan-3-yl)acetamide], 97 nM.
Compound `O=C(Cn1c(-c2cccc(Cl)c2)nn(-c2ccc(CCN3CCOCC3)cc2)c1=O)NCC1CC1` [Ad-6, 2-[3-(3-Chlorophenyl)-1-{4-[2-(morpholin-4-yl)ethyl]phenyl}-5-oxo-1,5-dihydro-4H-1,2,4-triazol-4-yl]-N-(cyclopropylmethyl)acetamide] registered a half-inhibitory concentration (IC50) of 62 nM.
As for `CC(C)NC(=O)Cn1c(-c2cccc(Cl)c2)nn(-c2ccc(CCN3CCOCC3)c(F)c2)c1=O` [Ad-7, 2-[3-(3-Chlorophenyl)-1-{3-fluoro-4-[2-(morpholin-4-yl)ethyl]phenyl}-5-oxo-1,5-dihydro-4H-1,2,4-triazol-4-yl]-N-(propan-2-yl)acetamide], the figure is 3.8 nM.
Regarding `CC(C)NC(=O)Cn1c(-c2cccc(Cl)c2)nn(-c2ccc(CCN3C4CCC3COC4)c(F)c2)c1=O` [Ad-8, 2-[3-(3-Chlorophenyl)-1-{3-fluoro-4-[2-(3-oxa-8-azabicyclo[3.2.1]oct-8-yl)ethyl]phenyl}-5-oxo-1,5-dihydro-4H-1,2,4-triazol-4-yl]-N-(propan-2-yl)acetamide], the half-maximal inhibitory concentration (IC50) was found to be 1.5 nM.
`COc1cc(-n2nc(-c3cccc(Cl)c3)n(CC(=O)NC(C)C)c2=O)ccc1CCN1CCOCC1` [Ad-9, 2-[3-(3-Chlorophenyl)-1-{3-methoxy-4-[2-(morpholin-4-yl)ethyl]phenyl}-5-oxo-1,5-dihydro-4H-1,2,4-triazol-4-yl]-N-(propan-2-yl)acetamide] came in with a half-maximal inhibitory concentration (IC50) of 2.3 nM.
As for `COc1cc(-n2nc(-c3cccc(Cl)c3)n(CC(=O)NC(C)C)c2=O)ccc1CCN1C2CCC1COC2` [Ad-10, 2-[3-(3-Chlorophenyl)-1-{3-methoxy-4-[2-(3-oxa-8-azabicyclo[3.2.1]oct-8-yl)ethyl]phenyl}-5-oxo-1,5-dihydro-4H-1,2,4-triazol-4-yl]-N-(propan-2-yl)acetamide], the figure is 1.3 nM.
`CC(C)NC(=O)Cn1c(-c2cccc(Cl)c2)nn(-c2ccc(CC(C)N3CCOCC3)cc2)c1=O` (stereo not shown) [Ad-13, 2-[3-(3-Chlorophenyl)-1-{4-[2-(morpholin-4-yl)propyl]phenyl}-5-oxo-1,5-dihydro-4H-1,2,4-triazol-4-yl]-N-(propan-2-yl)acetamide]: the IC50 was 2.9 nM.
As for `CC(C)NC(=O)Cn1c(-c2cccc(Cl)c2)nn(-c2ccc(CC(C)N3C4CCC3COC4)cc2)c1=O` (stereo not shown) [Ad-14, 2-[3-(3-Chlorophenyl)-1-{4-[2-(3-oxa-8-azabicyclo[3.2.1]oct-8-yl)propyl]phenyl}-5-oxo-1,5-dihydro-4H-1,2,4-triazol-4-yl]-N-(propan-2-yl)acetamide], the figure is 0.54 nM.

In general, IC50 refers to the point on the concentration scale where inhibition reaches its midpoint.
